From PMC10916623, “Tissue distribution and pharmacokinetics of isoxanthohumol from hops in rodents” (Food Science & Nutrition, 2023)
Several values for one entry are separate records, joined by “and”; a condition that tells them apart may be missing. Equal values may be shown once. Read-outs that look alike come from different tables or passages of the source. Marks after values point to notes of the source that are not given here.

Experiments:
[1] = Tissue distribution after single-gavage administration of IXA to mice; type: in vivo, C57/BL6 mice; settings: mice; for IXA accumulation, single-ingestion test (at 24 h): single IXA 50 mg/kg BW
Protocol: (§1) Six‐week‐old male C57/BL6 mice (initial BW: 19–24 g; Japan SLC, Shizuoka, Japan) were housed in a room maintained at 23–26°C with a 12‐h light–dark cycle. During the 1‐week acclimatization period, they were allowed free access to a commercial diet (Oriental Yeast Co., Tokyo, Japan) and water. Two days before the experiment, they were fed AIN‐93M (Oriental Yeast Co.). Before drug administration, they were fasted for 20 h, but had free access to water. IXA dissolved in 3% hydroxypropyl‐β‐cyclodextrin and 5% ethanol (Fujifilm; Wako Pure Chemical Corp., Osaka, Japan) was named the injection solution and administered (50 mg/kg BW) to mice intragastrically using a gastric feeding tube (AS ONE, Osaka, Japan). Blood, brain, thymus, heart, lung, liver, spleen, pancreas, kidney, and gastrocnemius muscle were collected 0.5, 1, 2, 4, 8, 12, 24, and 48 h after administration. We also set up a control group, and mice in this group were sacrificed just before we started administering IXA at 0 h. At 4 h after administration, mice were allowed free access to AIN‐93 M. Plasma was isolated by centrifugation at 17 × 10^3 m/s^2 (5911, Kubota, Tokyo, Japan) for 5 min at 4°C. All tissues were dissected, weighed, and immediately frozen in liquid nitrogen. All samples were stored at −80°C until analysis.
(§2) Tissue sample deconjugation was performed as described in a previous report with slight modifications (Tanaka et al., [2022]). Tissues were homogenized in phosphate‐buffered saline (pH 7.4), which was nine times the tissue volume. The tissue homogenate was incubated in 50 mmol/L ascorbic acid (one‐fifth the volume of phosphate‐buffered saline) and 1.67 μkat/100 μL of β‐glucuronidase type H‐1 in 0.1 mol/L sodium acetate buffer (pH 4.7, nine times the volume of the sample) for 2 h at 37°C. Then, 2.4 nmol of QTM was added to samples as an internal standard. The supernatant was isolated by centrifugation at 17 × 10^3 m/s^2 (Kubota) for 5 min at 4°C. Then, methanol (Kanto Kagaku, 25183‐2B) was added to the pellets, and they were shaken for 1 min. The methanol layer and pellets were separated by centrifugation at 17 × 10^3 m/s^2 (Kubota, RY1071‐A000) for 5 min at 4°C. Methanol extraction was repeated three times. Finally, methanol extracts were mixed with the supernatant (the composition of the mixture was 30% methanol) and then applied to an Inert Sep C8 (200 mg/3 mL; GL Sciences, Tokyo, Japan; 5010‐61082) cartridge. The cartridge was preconditioned with 6 mL of 2% acetic acid in methanol, and then 9 mL of 2% acetic acid in water. The extracted tissue was passed through the cartridge, and it was washed with 5 mL of 2% acetic acid in 30% methanol aq. The flavonoids were eluted with 10 mL of 2% acetic acid in methanol.
(§3) The plasma and tissue extracts were evaporated using a Centrifugal Evaporator (EYERA, Tokyo, Japan, CVE‐3000). The samples were stored at −80°C until the next day. Then, the samples were dissolved in 120 μL of a mobile phase solution and divided into two test tubes. The first sample was injected into the HPLC with an ultraviolet detection system (Shimadzu, Kyoto, Japan).
(§4) IXA and 8‐PN concentrations were determined by their respective standard curves using an internal standard method. A Cadenza 3‐μm CD‐C18 HPLC column (CD005, 150 × 4.6 mm; Imtakt Corporation, Kyoto, Japan) was equipped for HPLC (λ = 295 nm). The mobile phase consisted of methanol:water:acetic acid (60:35:5, v/v/v). The flow rate was set at 1.0 mL/min. […] Because clear peaks over 4.5 pmol/sample were detected for IXA and 8‐PN by visual evaluation, we determined that these concentrations were the peak limit of detections for each flavonoid. We applied calibration curves in the IXA/QTM concentration ratio range of 0.007–35.1 (R ^2 = .9955).

[2] = parameters: method as in Possemiers et al., 2008; settings: ref Possemiers et al., 2008; cited from earlier work
[3] = Liver accumulation after intragastric IXA administration at various concentrations to rats for 28 days; type: in vivo, Sprague–Dawley rats; settings: rat liver; IXA 112.5–1500 mg/kg BW once a day for 28 days; Pearson
Protocol: Six‐week‐old female Sprague–Dawley rats (Charles River Laboratories Japan, Inc., Yokohama, Japan) were housed in a room maintained at 20–26°C on a 12‐h light–dark cycle. The initial BW of rats was 176–179 g. They were allowed free access to a commercial diet (CRF‐1) and water during the experiment. IXA dissolved in injection solution was administered intragastrically to rats (112.5, 225, 360, 450, and 1500 mg/kg BW) daily for 28 days using a gastric feeding tube. We also set up a control group to which the injection solution was administered. The final BW of rats was 231–241 g. The liver was collected the day after the last administration. The rats were fasted for 16–24 h before they were euthanized, but they had free access to water. Liver samples were stored at −80°C until analysis.
as §2
The plasma and tissue extracts were evaporated using a Centrifugal Evaporator (EYERA, Tokyo, Japan, CVE‐3000). The samples were stored at −80°C until the next day. Then, the samples were dissolved in 120 μL of a mobile phase solution and divided into two test tubes. […]
IXA and 8‐PN concentrations were determined by their respective standard curves using an internal standard method. […] Because clear peaks over 4.5 pmol/sample were detected for IXA and 8‐PN by visual evaluation, we determined that these concentrations were the peak limit of detections for each flavonoid. […]

[4] = Plasma pharmacokinetics after single-gavage administration of IXA to mice; type: in vivo, C57/BL6 mice; settings: for Cmax: mean ± SEM
Protocol: as §1
Plasma samples were deconjugated by β‐glucuronidase type H‐1 (which has β‐glucuronidase and sulphatase activity; Sigma, St. Louis, MO, USA; G0751) to convert aglycon from conjugated metabolites of IXA and 8‐PN, as described in a previous report (Y. Tanaka et al., [2022]). Briefly, 100 μL of plasma was mixed with 900 μL of 0.1 mol/L sodium acetate buffer (pH 4.7), 200 μL of 50 mmol/L ascorbic acid, and 1 mL of 1.67 μkat/100 μL of β‐glucuronidase type H‐1, and then incubated for 30 min at 37°C. Then, 2.4 nmol of QTM was added to the samples as the internal standard. The liberated aglycone was extracted using ethyl acetate (Kanto Kagaku, 14,029‐2B).
as §3, §4

[5] = kidney, single oral IXA 50 mg/kg BW
[6] = lung, single oral IXA 50 mg/kg BW
[7] = single oral IXA 50 mg/kg BW, plasma

4,7‐dihydroxy‐5‐methoxy‐8‐prenylflavanone [IXA]
IXA detection in the brain ([1]; brain, single oral IXA 50 mg/kg BW, data not shown): not detected | time of second peak of IXA ([1]; heart, single oral IXA 50 mg/kg BW): 4 h | C max IXA ([1]; heart, single oral IXA 50 mg/kg BW, measured at 0.5 h): 3.3 ± 1.0^b,c nmol/g of tissue | IXA accumulation, single-ingestion test (at 24 h) ([1]; kidney): 4.6 ± 0.3 nmol/g of tissue | time of second peak of IXA [1, 5]: 8 h | IXA level at 48 h after ingestion [1, 5]: 2.67 ± 0.41 nmol/g tissue | C max IXA ([1]; kidney, single oral IXA 50 mg/kg BW, measured at 1 h): 25.5 ± 5.3^a,b nmol/g of tissue | IXA accumulation, single-ingestion test (at 24 h) ([1]; liver): 3.2 ± 1.3 nmol/g of tissue | IXA level at 48 h after ingestion ([1]; liver, single oral IXA 50 mg/kg BW): 0.14 ± 0.12 nmol/g tissue | C max IXA ([1]; liver, single oral IXA 50 mg/kg BW, measured at 1 h): 76.2 ± 32.4^a nmol/g of tissue | IXA accumulation, single-ingestion test (at 24 h) ([1]; lung): 1.7 ± 1.5 nmol/g of tissue | time of second peak of IXA [1, 6]: 2 h | IXA level at 48 h after ingestion [1, 6]: 0.05 ± 0.04 nmol/g tissue | C max IXA ([1]; lung, single oral IXA 50 mg/kg BW, measured at 0.5 h): 5.3 ± 3.3^b,c nmol/g of tissue | IXA accumulation, single-ingestion test (at 24 h) ([1]; muscle): 0.1 ± 0.1 nmol/g of tissue | C max IXA ([1]; muscle, single oral IXA 50 mg/kg BW, measured at 0.5 h): 3.4 ± 1.3^b,c nmol/g of tissue | time of second peak of IXA ([1]; pancreas, single oral IXA 50 mg/kg BW): 12 h | C max IXA ([1]; pancreas, single oral IXA 50 mg/kg BW, measured at 0.5 h): 22.4 ± 2.1^b,c nmol/g of tissue | time of second peak of IXA ([1]; skeletal muscle, single oral IXA 50 mg/kg BW): 12 h | IXA accumulation, single-ingestion test (at 24 h) ([1]; spleen): 1.1 ± 1.0 nmol/g of tissue | time of second peak of IXA ([1]; spleen, single oral IXA 50 mg/kg BW): 4 h | C max IXA ([1]; spleen, single oral IXA 50 mg/kg BW, measured at 0.5 h): 6.5 ± 2.2^b,c nmol/g of tissue | IXA accumulation, single-ingestion test (at 24 h) ([1]; thymus): 3.6 ± 3.1 nmol/g of tissue | time of second peak of IXA ([1]; thymus, single oral IXA 50 mg/kg BW): 4 h | C max IXA ([1]; thymus, single oral IXA 50 mg/kg BW, measured at 0.5 h): 6.5 ± 4.1^b,c nmol/g of tissue | rate of excretion into the feces [2]: approximately 47% | correlation coefficient between dose-concentration and accumulation [3]: .813 | IXA accumulation, single-ingestion test (at 24 h) ([4]; plasma, single IXA 50 mg/kg BW, 24 h): 0.2 ± 0.1 μmol/L of plasma | time at which IXA was increased further ([4]; plasma, single oral IXA 50 mg/kg BW): 8 h | IXA in plasma at 48 h after administration ([4]; single oral IXA 50 mg/kg BW, 48 h): not detected | T 1/2 (half-life in the mean elimination phase) [4, 7]: 1.43 h and 1.4 h | time until which detected in plasma after ingestion [4, 7]: 24 h | Cmax ([4]; single oral IXA 50 mg/kg BW, plasma, at 0.5 h, read-out: plasma maximum concentration (C max)): 3.95 ± 0.81 µM | AUC24h ([4]; single oral IXA 50 mg/kg BW, plasma, calculated using the mean at each time point): 18.2 µM·h | Cmax ([4]; single oral IXA 50 mg/kg BW, plasma, read-out: C max): 4 ± 0.8 µM
